Measurements taken from ChEMBL document CHEMBL5380773, “Novel Feleucin-K3-Derived Peptides Modified with Sulfono-γ-AA Building Blocks Targeting Pseudomonas aeruginosa and Methicillin-Resistant Staphylococcus aureus Infections” (J Med Chem, 2023).
In brackets after ≈: the same amount, converted by molar mass. Activity calls are given as the source filed them. The rule behind the calls is not given here. Numbered stars: 1 amine (or outer) side, 2 acyl side, 3 side chain; on linkers, the order of the positions; unused ones are H or OH. Square brackets hold non-standard residues; d marks the D form. Peptide text beside a SMILES is read from it. * marks the point of attachment. X2 = CC(C)C[C@H](N)CN(CC(=O)[*:2])[*:1]; X1 = O=S(=O)(c1ccc(I)cc1)*

Tests used:
[1] = tested on: Pseudomonas aeruginosa; assay: Antibiofilm activity against Pseudomonas aeruginosa ATCC 27853 assessed as reduction in biofilm thickness at 1 times MBIC50 incubated for 24 hrs by confocal laser scanning microscopy analysis (reference value: 90 micrometer); assay type: functional
[2] = tested on: Staphylococcus aureus; assay: Antibiofilm activity against methicillin resistant Staphylococcus aureus ATCC 33591 assessed as reduction in biofilm thickness; assay type: functional, organism-based
[3] = tested on: Staphylococcus aureus; assay: Antimicrobial activity against methicillin resistant Staphylococcus aureus ATCC 33591 infected in skin wound mouse model assessed as reduction in inflammatory infiltration at […] by H and E staining based assay; assay type: functional, organism-based; conditions: dose lower 10.0 mg/kg
[4] = tested on: Staphylococcus aureus; assay: Bactericidal activity against methicillin resistant Staphylococcus aureus ATCC 33591 at 4 times MIC after 2 to 4 hrs; assay type: functional, organism-based; conditions: time 2-4 hrs
[5] = tested on: Pseudomonas aeruginosa; assay: Antibiofilm activity against Pseudomonas aeruginosa ATCC 27853 assessed as reduction in biofilm numbers at 1 times MBIC90 incubated for 24 hrs by confocal laser scanning microscopy analysis; assay type: functional, organism-based
[6] = tested on: Pseudomonas aeruginosa; assay: Antimicrobial activity against Pseudomonas aeruginosa ATCC 27853 incubated for 18 hrs by microdilution method; assay type: functional
[7] = tested on: Cell membrane; assay: Induction of membrane disruption in Pseudomonas aeruginosa ATCC 27853 assessed as cytoplasmic leakage at 2 to 4 times MIC incubated for 24 hrs by TEM analysis; assay type: subcellular
[8] = tested on: Staphylococcus aureus; assay: Antimicrobial activity against methicillin resistant Staphylococcus aureus ATCC 33591 infected in BALB/c mouse assessed as reduction in tissue damage at 0.25 to 1 mg/kg infected with bacteria for 2 hrs prior to compound addition on 1, 24 and 48 hrs and measured after 72 hrs by H and E staining based assay; assay type: functional, organism-based; conditions: dose 0.25-1 mg/kg
[9] = tested on: Pseudomonas aeruginosa; assay: Antimicrobial activity against Pseudomonas aeruginosa in presence of LPS/LTA; assay type: functional
[10] = tested on: Cell membrane; assay: Induction of membrane disruption in methicillin resistant Staphylococcus aureus ATCC 33591 assessed as cytoplasmic leakage at 2 to 4 times MIC incubated for 2 to 4 hrs by TEM analysis; assay type: subcellular; conditions: time 2-4 hrs
[11] = tested on: Cell membrane; assay: Induction of cytoplasmic membrane depolarization in methicillin resistant Staphylococcus aureus ATCC 33591 by DiSC35 dye based fluorescence method
[12] = tested on: Staphylococcus aureus; assay: Induction of resistant development in Staphylococcus aureus ATCC 25923 assessed as fold increase by serial passage assay; assay type: functional
[13] = tested on: Erythrocyte; assay: Hemolytic activity against mouse red blood cells incubated for 1 hr; assay type: toxicity, cell-based
[14] = tested on: Staphylococcus aureus; assay: Antimicrobial activity against methicillin resistant Staphylococcus aureus ATCC 33591 infected in skin wound mouse model assessed as reduction in ulcer at 1 to 4 mg/kg measured on day 3 and 7 by H and E staining based assay; assay type: functional, organism-based; conditions: dose 1-4 mg/kg, time 3-7 day
[15] = tested on: Pseudomonas aeruginosa; assay: Antimicrobial activity against Pseudomonas aeruginosa ATCC 27853 infected in C57BL/6J mouse assessed as reduction in lung bacterial load at 10 mg/kg, ip measured after 72 hrs […] (reference value: 6.4 10^3CFU/mg); assay type: functional
[16] = tested on: Pseudomonas aeruginosa; assay: Bactericidal activity against Pseudomonas aeruginosa ATCC 27853 at 4 times MIC after 30 mins by time kill assay; assay type: functional, organism-based
[17] = tested on: Cell membrane; assay: Induction of membrane disruption in Pseudomonas aeruginosa ATCC 27853 assessed as separation of cytoplasmic membrane at 2 to 4 times MIC incubated for 24 hrs by TEM analysis; assay type: subcellular
[18] = tested on: Pseudomonas aeruginosa; assay: Bactericidal activity against Pseudomonas aeruginosa ATCC 27853 at 4 times MIC after 5 mins by time kill assay; assay type: functional, organism-based
[19] = tested on: Escherichia coli; assay: Bactericidal activity against Escherichia coli ATCC 25922 at 1 to 2 times MIC after 2 to 3 hrs by time kill assay; assay type: functional, organism-based; conditions: time 2-3 hrs
[20] = tested on: Staphylococcus aureus; assay: Antimicrobial activity against methicillin resistant Staphylococcus aureus ATCC 33591 infected in BALB/c mouse assessed as biofilm eradication at 0.25 to 1 mg/kg infected with bacteria for 2 hrs prior to compound addition on 1, 24 and 48 hrs and measured after 72 hrs by H and E staining based assay; assay type: functional, organism-based; conditions: dose 0.25-1 mg/kg
[21] = tested on: Staphylococcus aureus; assay: Antimicrobial activity against methicillin resistant Staphylococcus aureus ATCC 33591 infected in BALB/c mouse assessed as reduction in sessile bacteria attached on catheters surface at 0.25 to 1 mg/kg infected with bacteria for 2 hrs prior to compound addition on 1, 24 and 48 hrs and measured after 72 hrs […]; assay type: functional, organism-based; conditions: dose 0.25-1 mg/kg
[22] = tested on: Cell membrane; assay: Induction of cytoplasmic membrane depolarization in Pseudomonas aeruginosa ATCC 27853 by DiSC35 dye based fluorescence method
[23] = tested on: DNA; assay: Binding affinity to methicillin resistant Staphylococcus aureus DNA at 8 times MIC incubated for 30 mins; assay type: nucleic-acid assay
[24] = tested on: Staphylococcus aureus; assay: Antimicrobial activity against methicillin resistant Staphylococcus aureus ATCC 33591 infected in skin wound mouse model assessed as wound healing at 0.25 mg/kg measured upto 10 days by H and E staining based assay; assay type: functional, organism-based; conditions: time <= 10.0 day
[25] = tested on: Cell membrane; assay: Induction of membrane disruption in Pseudomonas aeruginosa ATCC 27853 assessed as membrane blebbing at low concentration incubated for 24 hrs by SEM analysis; assay type: subcellular
[26] = tested on: Pseudomonas aeruginosa; assay: Bactericidal activity against Pseudomonas aeruginosa ATCC 27853 at 4 times MIC after 2 to 6 hrs by time kill assay; assay type: functional, organism-based; conditions: time 2-6 hrs
[27] = tested on: Pseudomonas aeruginosa; assay: Antibiofilm activity against Pseudomonas aeruginosa ATCC 27853 at MBIC50; assay type: functional, organism-based
[28] = tested on: DNA; assay: Binding affinity to Staphylococcus aureus DNA at 8 times MIC incubated for 30 mins; assay type: nucleic-acid assay
[29] = tested on: Cell membrane; assay: Induction of outer membrane disruption in Pseudomonas aeruginosa in presence of CaCl2 by NPN uptake assay; assay type: subcellular
[30] = tested on: Staphylococcus aureus; assay: Antimicrobial activity against methicillin resistant Staphylococcus aureus ATCC 33591 infected in skin wound mouse model assessed as reduction in skin wound bacterial load at 0.25 to 4 mg/kg measured on day 3 and 7 […]; assay type: functional, organism-based; conditions: dose 0.25-4 mg/kg, time 3-7 day
[31] = tested on: Pseudomonas aeruginosa; assay: Antimicrobial activity against Pseudomonas aeruginosa ATCC 27853 infected in C57BL/6J mouse assessed as reduction in TNF-alpha at 2.5 mg/kg, ip measured after 72 hrs […]; assay type: functional, organism-based
[32] = tested on: Staphylococcus aureus; assay: Induction of resistant development in methicillin resistant Staphylococcus aureus ATCC 33591 assessed as fold increase by serial passage assay; assay type: functional
[33] = tested on: Cell membrane; assay: Induction of membrane disruption in Pseudomonas aeruginosa ATCC 27853 assessed as cell lysis at high concentration incubated for 24 hrs by SEM analysis; assay type: subcellular
[34] = tested on: DNA; assay: Binding affinity to Staphylococcus epidermidis DNA at 8 times MIC incubated for 30 mins; assay type: nucleic-acid assay
[35] = tested on: Pseudomonas aeruginosa; assay: Bactericidal activity against Pseudomonas aeruginosa ATCC 27853 at 4 times MIC after 1 hr; assay type: functional, organism-based
[36] = tested on: Cell membrane; assay: Induction of membrane disruption in methicillin resistant Staphylococcus aureus ATCC 33591 assessed as membrane collapse at 2 to 4 times MIC incubated for 2 to 4 hrs by TEM analysis; assay type: subcellular; conditions: time 2-4 hrs
[37] = tested on: Staphylococcus aureus; assay: Bactericidal activity against Staphylococcus aureus ATCC 25923 at 4 times MIC after 1 hr by time kill assay; assay type: functional, organism-based
[38] = tested on: Staphylococcus aureus; assay: Antimicrobial activity against methicillin resistant Staphylococcus aureus ATCC 33591 infected in skin wound mouse model assessed as reduction in skin damage at 0.25 mg/kg measured upto 10 days by H and E staining based assay; assay type: functional, organism-based; conditions: time <= 10.0 day

CC(C)C[C@H](N)CN(CC(=O)N[C@@H](CCCCN)C(=O)N[C@@H](CC(C)C)C(=O)N[C@@H](CC(C)C)C(=O)N[C@@H](CCCCN)C(=O)N[C@@H](CCCCN)C(=O)N[C@@H](CC(C)C)C(=O)N[C@@H](CC(C)C)C(N)=O)S(=O)(=O)c1ccc(I)cc1 (X1-[X2]KLLKKLL-NH2)
Activity [1]: 40 um
Activity [2]: Active
Activity [3]: Active
Activity [4]: Active
Activity [5]: Active
MIC [6]: 3 µg/mL (≈ 2.35 µM)
Activity [7]: Active
Activity [8]: Active
MIC [9]: ≥ 64 µg/mL
Activity [10]: Active
Activity [11]: Active
fold change (FC) [12]: 2
MHC [13]: 256 µg/mL
Activity [14]: Active
Activity [15]: 1 10^3CFU/mg
Activity [16]: Active
Activity [17]: Active
Activity [18]: Active
Activity [19]: Active
Activity [20]: Active
Activity [21]: Active
Activity [22]: Active
Activity [23]: Active
Activity [24]: Active
Activity [25]: Active
Activity [26]: Active
Activity [27]: Active
Activity [28]: Active
Activity [29]: Active
Activity [30]: Active
Activity [31]: Active
fold change (FC) [32]: 2
Activity [33]: Active
Activity [34]: Active
Activity [35]: Active
Activity [36]: Active
Activity [37]: Active
Activity [38]: Active
